{
  "source": "patent US20150174095A1",
  "about": "“PHARMACEUTICAL COMPOSITIONS FOR THE TREATMENT OF VISUAL SYSTEM DISORDERS” (Allergan, Inc., priority 2013, published 2015)",
  "key": {"[1]": {"test_system": "ASCT1/2", "experiment": "[3H]L-serine transport into primary rat hippocampal astrocytes", "format": "cell-based", "conditions": "for IC50: inhibition of [3H]L-serine transport, rat astrocytes, 6-12 point curves, n of 3-4, read-out: Astro ASCT1/2 IC50; for inhibition of radiolabelled substrate transport: rat brain astrocytes in culture", "description": "(§1) Cell-based assays: the transport of [^3H]L- or D-serine was measured in primary cultures of rat hippocampal astrocytes or in human embryonic kidney (HEK) cells expressing ASCT transporter sub-types. For the astrocyte assays, cells were plated on either 24- or 96-well plates at a density of 50,000 cells per well. For the HEK assays, cells were plated on coated 96-well plates at a density of 80,000 cells/well. Assays were conducted in duplicate at room temperature in assay buffer consisting of: NaCl: 150 mM, KCl: 2 mM; MgCl2: 1 mM; CaCl2: 1 mM; HEPES: Tris buffer: 10 mM, pH7.4. To assess the sodium-dependence of transport, NaCl was replaced in the assay buffer by equimolar choline chloride. Following aspiration of growth medium and 2 washes with assay buffer, cells were incubated with [^3H]L- or D-serine at a final concentration of 1 μM for 5 min (astrocytes) or 1 min (HEK cells), after which the incubation medium was aspirated and the cells washed twice with ice-cold assay buffer. Cells containing radiolabel were solubilized in 100 μl of 1% Triton-X100 and an aliquot counted in a beta counter. IC50 values were determined over a range of at least 6 concentrations and derived from curve-fitting algorithms available in GraphPad Prism 4. Table 2 reflects the IC50 values for the inhibition of [^3H]L-serine transport into astrocytes and HEK cells expressing recombinant human ASCT1 or ASCT2. Values are IC50's in μM from 6-12 point inhibition curves, with an n of 3-4."}, "[2]": {"target": "T1, human ASCT1 (Homo sapiens, UniProt P43007)", "T1 construct": "expressed in transfected cells; host or cells: HEK293 cells stably expressing ASCT1", "T1 sequence (P43007 1-532)": "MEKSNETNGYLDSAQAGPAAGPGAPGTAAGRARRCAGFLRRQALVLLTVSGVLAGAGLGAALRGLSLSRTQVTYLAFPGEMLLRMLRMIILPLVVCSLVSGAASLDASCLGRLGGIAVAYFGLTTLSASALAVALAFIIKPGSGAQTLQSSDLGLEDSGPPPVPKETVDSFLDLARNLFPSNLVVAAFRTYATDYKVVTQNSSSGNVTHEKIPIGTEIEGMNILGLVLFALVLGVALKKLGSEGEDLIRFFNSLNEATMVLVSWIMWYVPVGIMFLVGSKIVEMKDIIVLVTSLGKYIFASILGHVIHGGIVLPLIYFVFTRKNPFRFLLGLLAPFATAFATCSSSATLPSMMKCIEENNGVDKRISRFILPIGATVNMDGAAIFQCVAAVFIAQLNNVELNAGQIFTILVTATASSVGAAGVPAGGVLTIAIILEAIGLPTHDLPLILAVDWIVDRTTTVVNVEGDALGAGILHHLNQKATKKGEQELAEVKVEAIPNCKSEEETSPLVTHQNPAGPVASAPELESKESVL", "experiment": "[3H]L-serine transport into HEK cells expressing recombinant human ASCT1", "format": "cell-based", "conditions": "inhibition of [3H]L-serine transport, HEK cells with human ASCT1, n of 3-4; read-out: HEK1A4 ASCT1 IC50", "description": "as §1, with “Values are IC50's in μM from 6-12 point inhibition curves, with an n of 3-4.” left out"}, "[3]": {"target": "T2, human ASCT2 (Homo sapiens, UniProt Q15758)", "T2 construct": "expressed in transfected cells; host or cells: HEK293 cells stably expressing ASCT2", "T2 sequence (Q15758 1-541)": "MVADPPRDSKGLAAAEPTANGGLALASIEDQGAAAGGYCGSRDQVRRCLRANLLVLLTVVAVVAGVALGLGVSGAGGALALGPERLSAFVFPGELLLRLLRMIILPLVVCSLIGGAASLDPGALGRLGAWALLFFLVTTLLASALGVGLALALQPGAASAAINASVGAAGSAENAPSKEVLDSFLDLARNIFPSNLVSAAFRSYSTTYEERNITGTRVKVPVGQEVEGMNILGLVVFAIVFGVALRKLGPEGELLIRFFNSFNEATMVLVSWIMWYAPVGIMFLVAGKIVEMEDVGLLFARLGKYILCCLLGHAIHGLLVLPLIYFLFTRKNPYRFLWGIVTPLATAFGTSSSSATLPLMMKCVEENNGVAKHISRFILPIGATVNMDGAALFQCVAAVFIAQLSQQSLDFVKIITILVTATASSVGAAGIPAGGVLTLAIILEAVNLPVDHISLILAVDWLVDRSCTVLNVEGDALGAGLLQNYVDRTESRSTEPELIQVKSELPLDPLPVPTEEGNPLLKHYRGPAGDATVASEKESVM", "experiment": "[3H]L-serine transport into HEK cells expressing recombinant human ASCT2", "format": "cell-based", "conditions": "inhibition of [3H]L-serine transport, HEK cells with human ASCT2, n of 3-4; read-out: HEK1A5 ASCT2 IC50", "description": "as §1, with “Values are IC50's in μM from 6-12 point inhibition curves, with an n of 3-4.” left out"}, "[4]": {"target": "T1, human ASCT1", "experiment": "Whole cell patch-clamp transport currents in HEK cells expressing human ASCT1", "format": "cell-based", "conditions": "for effect on substrate-evoked inward current: HEK ASCT1, with 0.3 mM L-serine; for current in the absence of applied substrate: HEK ASCT1, without L-serine", "description": "(§2) Patch-Clamp Recording in HEK 293 Cells (FIGS. 1A, 1B, 2A and 2B):\n(§3) Transport currents were recorded in human embryonic kidney (HEK) cells expressing human ASCT1 or ASCT2 transporter using whole cell patch-clamp. Extracellular solution contains: 140 mM NaCl, 2.0 mM MgCl2, 2.0 CaCl2, 10 mM HEPES, pH 7.4. The recording pipettes were filled with ICM containing: 130 mM NaSCN, 10 mM EGTA, 2 mM MgCl2, 10 mM HEPES, 10 mM L-alanine pH 7.3. The inhibitory effects of compounds were measured without/with 300 μM L-serine and normalized to these by 4-hydroxy-phenyglycine (100%)."}, "[5]": {"target": "T2, human ASCT2", "experiment": "Whole cell patch-clamp transport currents in HEK cells expressing human ASCT2", "format": "cell-based", "conditions": "for effect on substrate-evoked inward current: HEK ASCT2, with 0.3 mM L-serine; for current in the absence of applied substrate: HEK ASCT2, without L-serine", "description": "as §2, §3"}, "[6]": {"test_system": "LTP in primary visual cortex", "experiment": "Visual cortex slice physiology: long-term potentiation (LTP)", "parameters": "species or system rat", "description": "Following decapitation of the rat, the brain was rapidly removed and immersed in ice-cold artificial cerebrospinal fluid (ACSF) containing 124 mM NaCl, 3 mM KCl, 1.25 mM KH2PO4, 3.4 mM CaCl2, 2.5 mM MgSO4, 26 mM NaHCO3, and 10 mM D-glucose. A block of visual cortex was created by removing the frontal ⅔ portion of the brain and the cerebellum. Coronal visual cortex slices of 375 μm were prepared from adult Sprague Dawley (SD) rats using a vibratome (VT 1000 S; Leica). The slices were maintained in an interface recording chamber perfused with preheated ACSF. Slices were continuously perfused with this solution at a rate of 1.00-1.50 ml/min while the surface of the slices was exposed to warm, humidified 95% O2/5% CO2 and maintained at 31±1° C. Visual cortex slices were allowed to recover for 1 hr before recording began. A single stimulating and recording electrode were placed in layer IV and III, respectively, to generate and record a field excitatory postsynaptic potentials (fEPSPs). […] This was repeated 2 additional times with a 1 minute intertrain interval, and the level of LTP was recorded for at least 30 min. Changes in amplitude of the synaptic response were used to measure the extent of LTP because it was determined to be the more consistent parameter than the slope of the response. […]"}},
  "data": [
    {"smiles": "O=C(O)[C@@H]1NC[C@H](OCc2cccc(Oc3ccccc3)c2)[C@H]1O", "note": "(stereo in doubt) [(2R,3S,4S)-3-hydroxy-4-[(3-phenoxybenzyl)oxy]pyrrolidine-2-carboxylic acid]", "values": [
      {"measurement": "IC50", "setting": "[1]", "value": 10.7, "unit": "µM"},
      {"measurement": "inhibition of radiolabelled substrate transport", "setting": "[1]", "value": "completely inhibited"},
      {"measurement": "IC50", "setting": "[2]", "value": 46.4, "unit": "µM"},
      {"measurement": "IC50", "setting": "[3]", "value": 65.2, "unit": "µM"},
      {"measurement": "effect on substrate-evoked inward current", "setting": "[4]", "value": "inhibited the substrate-evoked inward current"},
      {"measurement": "current in the absence of applied substrate", "setting": "[4]", "value": "evoked an outward current"},
      {"measurement": "effect on substrate-evoked inward current", "setting": "[5]", "value": "inhibited the substrate-evoked inward current"},
      {"measurement": "current in the absence of applied substrate", "setting": "[5]", "value": "evoked an outward current"}
    ]},
    {"smiles": "O=C(O)[C@@H]1NC[C@H](OCc2ccc(-c3ccccc3)cc2)[C@H]1O", "note": "(stereo in doubt) [(2R,3S,4S)-4-(biphenyl-4-ylmethoxy)-3-hydroxypyrrolidine-2-carboxylic acid]", "values": [
      {"measurement": "IC50", "setting": "[1]", "value": 0.6, "unit": "µM"},
      {"measurement": "inhibition of radiolabelled substrate transport", "setting": "[1]", "value": "completely inhibited"},
      {"measurement": "IC50", "setting": "[2]", "value": 3.6, "unit": "µM"},
      {"measurement": "IC50", "setting": "[3]", "value": 2.8, "unit": "µM"},
      {"measurement": "effect on substrate-evoked inward current", "setting": "[4]", "value": "inhibited the substrate-evoked inward current"},
      {"measurement": "current in the absence of applied substrate", "setting": "[4]", "value": "evoked an outward current"},
      {"measurement": "effect on substrate-evoked inward current", "setting": "[5]", "value": "inhibited the substrate-evoked inward current"},
      {"measurement": "current in the absence of applied substrate", "setting": "[5]", "value": "evoked an outward current"},
      {"measurement": "effect on LTP in rat visual cortex slice", "setting": "[6]; 0.1 and 0.3 μM", "value": "dose-dependently facilitates long-term potentiation (LTP)"},
      {"measurement": "concentration that enhanced LTP in visual cortex", "setting": "[6]; rat visual cortex slice, as low as", "value": "≤ 0.1", "unit": "µM"}
    ]}
  ]
}
